What is called Ki is a dissociation constant, usually derived from enzyme kinetics or from competition with a known ligand.

This test in a line: Binding affinity against Opioid receptor delta 1.

Structures are written as SMILES.

`CC1(C)SCCSC[C@@H](NC(=O)[C@@H](N)Cc2ccccc2)C(=O)N[C@@H](Cc2ccccc2)C(=O)N[C@H]1C(N)=O` [12-(2-Amino-3-phenyl-propionylamino)-9-benzyl-5,5-dimethyl-8,11-dioxo-1,4-dithia-7,10-diaza-cyclotridecane-6-carboxylic acid amide] gave an inhibition constant Ki of 1020 nM.

`CC1(C)SSC[C@@H](NC(=O)[C@@H](N)Cc2ccccc2)C(=O)N[C@@H](Cc2ccccc2)C(=O)N[C@H]1C(=O)O` [10-(2-Amino-3-phenyl-propionylamino)-7-benzyl-3,3-dimethyl-6,9-dioxo-1,2-dithia-5,8-diaza-cycloundecane-4-carboxylic acid] gave a Ki of 42 nM.
